Holding throughout (experiment): relative viability (nuclei count vs DMSO), 5 days (fraction); higher = more cells survive
The subject of experiment [1] is NCI-H1648. The essentials:
(§1)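 After 5 days of treatment, lung cancer cells in 1536-well plates were fixed and stained in a single step (final 0.05% Triton X-100, 1% formaldehyde, 1 ug/ml Hoechst) and their nuclei counted on 4× images. Treatment had been applied by pin tool the day after seeding as one drug alone or as a fixed anchor-drug dose with five library-drug doses (not always all listed) in √10 steps. Relative viability is the nuclei count of treated wells divided by that of vehicle wells, and values are medians of duplicate plates.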

For experiment [2], the system named is NCI-H2009. The essentials: as §1
Experiment [3] relates to NCI-H460. The essentials: as §1
For experiment [4], the system named is NCI-H522. The essentials:
as §1

Experiment [5] concerns NCI-H661. The essentials:
as §1

The test system of experiment [6] is IA-LM. The essentials:
as §1

Drawing on the supplement of paper PMC10307832, this text covers relative viability for four molecules.

For the molecule `NC(=O)Nc1cc(-c2cccc(F)c2)sc1C(=O)N[C@H]1CCCNC1` [AZD7762] + CC(=O)c1c(C)c2cnc(Nc3ccc(N4CCNCC4)cn3)nc2n(C2CCCC2)c1=O [Palbociclib] (partner 0.5 µM), the relative viability in experiment [1] (first compound 0.01 µM) is 0.394; in experiment [1] (first compound 0.03162 µM), 0.245; in experiment [1] (first compound 0.1 µM) it was 0.277; in experiment [1] (first compound 0.3162 µM) it was 0.27; in experiment [1] (first compound 1 µM), 0.283; in experiment [2] (first compound 0.01 µM), 0.155. Also, the relative viability in experiment [2] (first compound 0.03162 µM) is 0.214; in experiment [2] (first compound 0.1 µM), 0.221; in experiment [2] (first compound 0.3162 µM), 0.175; in experiment [2] (first compound 1 µM), 0.13; in experiment [3] (first compound 0.01 µM) it was 0.254; in experiment [3] (first compound 0.03162 µM), 0.117. In addition, the relative viability in experiment [3] (first compound 0.1 µM) was 0.0606; in experiment [3] (first compound 0.3162 µM), 0.0344; in experiment [3] (first compound 1 µM), 0.0224; in experiment [4] (first compound 0.01 µM) it was 1.07; in experiment [4] (first compound 0.03162 µM), 0.987; in experiment [4] (first compound 0.1 µM), 0.999. For the same molecule, the relative viability turned out to be 1.09 in experiment [4] (first compound 0.3162 µM); 1 in experiment [4] (first compound 1 µM); 0.447 in experiment [5] (first compound 0.01 µM); 0.456 in experiment [5] (first compound 0.03162 µM); 0.497 in experiment [5] (first compound 0.1 µM); 0.461 in experiment [5] (first compound 0.3162 µM). This molecule also yielded a relative viability in experiment [5] (first compound 1 µM) of 0.344.
In the case of `O=C(O)c1ccc(-c2c[nH]c3ncc(-c4ccccc4)cc23)cc1C1CCCC1` + Nc1nc2[nH]cc(CCc3ccc(C(=O)N[C@@H](CCC(=O)O)C(=O)O)cc3)c2c(=O)[nH]1 [Pemetrexed] (partner 0.2 µM), the relative viability in experiment [1] (first compound 0.04 µM) turned out to be 0.732; in experiment [1] (first compound 0.1265 µM), 0.853; in experiment [1] (first compound 0.4 µM), 0.681; in experiment [2] (first compound 0.04 µM) it was 1.03; in experiment [2] (first compound 0.1265 µM) it was 1.11; in experiment [2] (first compound 0.4 µM) it was 1.03. Further, the relative viability in experiment [2] (first compound 1.265 µM) was 0.946; in experiment [3] (first compound 0.04 µM), 0.0611; in experiment [3] (first compound 0.1265 µM), 0.0579; in experiment [3] (first compound 0.4 µM) it was 0.0617; in experiment [3] (first compound 1.265 µM) it was 0.0609; in experiment [4] (first compound 0.04 µM), 0.829. Moreover, the relative viability in experiment [4] (first compound 0.1265 µM) was 1.04; in experiment [4] (first compound 0.4 µM) it was 0.812; in experiment [4] (first compound 1.265 µM) it was 0.928; in experiment [5] (first compound 0.04 µM), 0.881; in experiment [5] (first compound 0.1265 µM) it was 0.918; in experiment [5] (first compound 0.4 µM), 0.92. Also, in experiment [5] (first compound 1.265 µM), the relative viability came out at 0.892.
Regarding `NC(=O)Nc1cc(-c2cccc(F)c2)sc1C(=O)N[C@H]1CCCNC1` [AZD7762] + CC(=O)Nc1cccc(-n2c(=O)n(C3CC3)c(=O)c3c(Nc4ccc(I)cc4F)n(C)c(=O)c(C)c32)c1 [Trametinib] (partner 0.02 µM), the relative viability in experiment [1] (first compound 0.01 µM) stood at 0.506; in experiment [1] (first compound 0.03162 µM) it was 0.409; in experiment [1] (first compound 0.1 µM), 0.513; in experiment [1] (first compound 0.3162 µM), 0.446; in experiment [1] (first compound 1 µM) it was 0.514; in experiment [2] (first compound 0.01 µM), 0.279. Further, the relative viability in experiment [2] (first compound 0.03162 µM) is 0.35; in experiment [2] (first compound 0.1 µM), 0.207; in experiment [2] (first compound 0.3162 µM) it was 0.295; in experiment [2] (first compound 1 µM), 0.236; in experiment [3] (first compound 0.01 µM) it was 0.327; in experiment [3] (first compound 0.03162 µM), 0.179. In addition, the relative viability worked out at 0.226 in experiment [3] (first compound 0.1 µM); 0.171 in experiment [3] (first compound 0.3162 µM); 0.0341 in experiment [3] (first compound 1 µM); 0.666 in experiment [4] (first compound 0.01 µM); 0.822 in experiment [4] (first compound 0.03162 µM); 0.737 in experiment [4] (first compound 0.1 µM). In addition, the relative viability in experiment [4] (first compound 0.3162 µM) came to 0.812; in experiment [4] (first compound 1 µM), 0.791; in experiment [5] (first compound 0.01 µM), 0.662; in experiment [5] (first compound 0.03162 µM), 0.569; in experiment [5] (first compound 0.1 µM) it was 0.577; in experiment [5] (first compound 0.3162 µM), 0.599. In experiment [5] (first compound 1 µM), this molecule gave a relative viability of 0.369.
As for `O=C(O)c1ccc(-c2c[nH]c3ncc(-c4ccccc4)cc23)cc1C1CCCC1` + O=C(CCCCCCC(=O)Nc1ccccc1)NO [Vorinostat] (partner 1 µM), the relative viability was found to be 0.976 in experiment [6] (first compound 0.04 µM); 1.07 in experiment [6] (first compound 0.1265 µM); 1.13 in experiment [6] (first compound 0.4 µM); 1.03 in experiment [6] (first compound 1.265 µM); 0.648 in experiment [1] (first compound 0.04 µM); 0.581 in experiment [1] (first compound 0.1265 µM). For the same molecule, the relative viability turned out to be 0.331 in experiment [1] (first compound 0.4 µM); 0.719 in experiment [2] (first compound 0.04 µM); 0.733 in experiment [2] (first compound 0.1265 µM); 0.744 in experiment [2] (first compound 0.4 µM); 0.635 in experiment [2] (first compound 1.265 µM); 0.642 in experiment [3] (first compound 0.04 µM). Also, the relative viability in experiment [3] (first compound 0.1265 µM) worked out at 0.842; in experiment [3] (first compound 0.4 µM), 0.831; in experiment [3] (first compound 1.265 µM), 0.603; in experiment [4] (first compound 0.04 µM), 0.932; in experiment [4] (first compound 0.1265 µM), 0.984; in experiment [4] (first compound 0.4 µM) it was 0.843. Moreover, the relative viability in experiment [4] (first compound 1.265 µM) was determined as 1.11; in experiment [5] (first compound 0.04 µM), 0.766; in experiment [5] (first compound 0.1265 µM), 0.763; in experiment [5] (first compound 0.4 µM), 0.787; in experiment [5] (first compound 1.265 µM), 0.787.
